Converted amounts (≈) assume the structure as drawn.

Consider 1 molecule from ChEMBL document CHEMBL4834420, “Projected Dose Optimization of Amino- and Hydroxypyrrolidine Purine PI3Kδ Immunomodulators” (J Med Chem, 2021).

Data set [1] is described as follows: Solubility of compound in stimulated intestinal fluid. The format is physicochemical. The note with it: simulated intestinal fluid.
The nature of data set [2]: Volume of distribution in Wistar Han rat. The format is ADME. The note with it: in vivo.
Data set [3] can be described thus: Trough plasma concentration Brown Norway rat at 10 mg/kg, po. The note with it: in vivo, read-out: Cmin. The class given is ADME, organism-based.
A short description of data set [4]: Oral bioavailability in Beagle dog. The format is ADME, organism-based, Canis lupus familiaris. The note with it: in vivo.
The nature of data set [5]: Unbound Trough plasma concentration Brown Norway rat at 10 mg/kg, po. The class given is ADME, organism-based. The note with it: in vivo.
Another data set deals with BCRP. The data set can be described thus: Efflux ratio of apparent permeability from basolateral to apical side over apical to basolateral side in MDCK2 cells expressing BCRP. The class given is ADME, cell-based, Canis lupus familiaris, MDCK-II. The note with it: dog.
The target of data set [6] is PI3-kinase p110-delta/p85-alpha (Homo sapiens, UniProt O00329). The data set can be described thus: Inhibition of N-terminal His6-tagged recombinant full length human p110delta/untagged recombinant full length human p85alpha expressed in baculovirus infected Sf21 insect cells using PIP2 as substrate preincubated for 15 mins followed by substrate addition and measured after 1 hr by HTRF assay. For orientation: In TR-FRET formats the signal depends on donor and acceptor labels being close together.

In another data set the target is Cytochrome P450 2C9 (Homo sapiens, UniProt P11712). Put plainly: Inhibition of CYP2C9 (unknown origin). The class given is ADME.
In another data set the target is T1, Cytochrome P450 2B6 (Homo sapiens, UniProt P20813).
T1 sequence (P20813 whole entry): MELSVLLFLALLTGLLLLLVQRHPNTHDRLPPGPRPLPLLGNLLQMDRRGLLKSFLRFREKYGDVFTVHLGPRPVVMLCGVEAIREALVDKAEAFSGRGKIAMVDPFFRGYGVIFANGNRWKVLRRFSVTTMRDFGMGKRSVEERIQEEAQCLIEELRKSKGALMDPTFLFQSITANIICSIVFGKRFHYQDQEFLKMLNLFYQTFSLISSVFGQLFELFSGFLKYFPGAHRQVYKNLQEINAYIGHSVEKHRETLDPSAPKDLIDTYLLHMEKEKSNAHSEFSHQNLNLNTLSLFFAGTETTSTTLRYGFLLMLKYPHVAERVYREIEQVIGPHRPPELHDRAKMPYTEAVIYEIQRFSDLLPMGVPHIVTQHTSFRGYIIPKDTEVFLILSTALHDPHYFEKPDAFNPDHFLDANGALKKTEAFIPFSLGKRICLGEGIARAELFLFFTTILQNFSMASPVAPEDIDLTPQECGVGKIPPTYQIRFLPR
The data set can be described thus: Inhibition of CYP2B6 (unknown origin). The class given is ADME.

Data set [7] in a line: Oral bioavailability in C57BL/6 mouse. The format is ADME, organism-based. The note with it: in vivo.

PI3-kinase p110-delta/p85-alpha, sequence (P27986 whole entry): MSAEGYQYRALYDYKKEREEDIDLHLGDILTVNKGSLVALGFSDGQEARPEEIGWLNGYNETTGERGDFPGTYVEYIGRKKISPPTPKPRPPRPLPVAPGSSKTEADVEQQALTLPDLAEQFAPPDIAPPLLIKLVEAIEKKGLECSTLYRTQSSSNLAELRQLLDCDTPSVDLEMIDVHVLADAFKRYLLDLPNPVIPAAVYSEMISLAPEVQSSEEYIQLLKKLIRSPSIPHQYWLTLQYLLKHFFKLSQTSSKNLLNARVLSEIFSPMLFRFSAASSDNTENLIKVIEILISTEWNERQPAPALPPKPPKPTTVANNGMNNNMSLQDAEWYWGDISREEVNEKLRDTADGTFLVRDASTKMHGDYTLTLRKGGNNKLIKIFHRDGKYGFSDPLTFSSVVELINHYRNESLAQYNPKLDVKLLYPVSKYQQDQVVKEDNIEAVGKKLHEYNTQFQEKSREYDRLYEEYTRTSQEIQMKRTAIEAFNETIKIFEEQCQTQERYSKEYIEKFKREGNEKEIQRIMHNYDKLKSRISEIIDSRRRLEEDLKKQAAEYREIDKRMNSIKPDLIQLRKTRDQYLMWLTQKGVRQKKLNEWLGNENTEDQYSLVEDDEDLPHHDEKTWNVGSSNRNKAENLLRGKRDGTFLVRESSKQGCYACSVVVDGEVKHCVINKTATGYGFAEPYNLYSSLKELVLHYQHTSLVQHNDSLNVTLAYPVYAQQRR
PI3-kinase p110-delta/p85-alpha, sequence (O00329 whole entry): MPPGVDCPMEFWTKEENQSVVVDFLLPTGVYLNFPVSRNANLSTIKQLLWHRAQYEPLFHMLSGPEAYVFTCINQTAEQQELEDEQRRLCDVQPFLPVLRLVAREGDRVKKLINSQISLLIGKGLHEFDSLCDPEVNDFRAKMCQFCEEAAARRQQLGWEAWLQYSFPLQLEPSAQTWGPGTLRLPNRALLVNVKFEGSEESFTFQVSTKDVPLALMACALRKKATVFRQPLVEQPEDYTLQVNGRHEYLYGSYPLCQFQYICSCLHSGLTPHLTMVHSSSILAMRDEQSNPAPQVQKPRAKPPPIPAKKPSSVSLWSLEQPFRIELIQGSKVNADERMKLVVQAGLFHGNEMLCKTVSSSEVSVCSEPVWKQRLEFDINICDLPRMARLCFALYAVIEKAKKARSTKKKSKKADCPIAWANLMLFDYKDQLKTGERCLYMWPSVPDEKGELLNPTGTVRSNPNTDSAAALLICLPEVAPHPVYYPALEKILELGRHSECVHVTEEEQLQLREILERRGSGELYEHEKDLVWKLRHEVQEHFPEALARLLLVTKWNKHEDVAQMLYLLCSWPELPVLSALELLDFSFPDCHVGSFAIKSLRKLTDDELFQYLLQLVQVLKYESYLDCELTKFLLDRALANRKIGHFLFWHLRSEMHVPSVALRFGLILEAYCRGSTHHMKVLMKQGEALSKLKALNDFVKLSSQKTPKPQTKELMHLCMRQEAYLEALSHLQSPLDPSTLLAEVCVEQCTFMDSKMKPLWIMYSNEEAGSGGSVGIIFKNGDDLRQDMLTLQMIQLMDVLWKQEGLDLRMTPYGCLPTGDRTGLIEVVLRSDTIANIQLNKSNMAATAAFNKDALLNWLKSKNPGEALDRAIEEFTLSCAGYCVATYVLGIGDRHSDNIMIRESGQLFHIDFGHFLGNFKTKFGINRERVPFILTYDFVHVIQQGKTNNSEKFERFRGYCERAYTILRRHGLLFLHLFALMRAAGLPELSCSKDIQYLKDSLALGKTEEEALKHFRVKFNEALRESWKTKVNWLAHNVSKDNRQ
Cytochrome P450 2C9, sequence (P11712 whole entry): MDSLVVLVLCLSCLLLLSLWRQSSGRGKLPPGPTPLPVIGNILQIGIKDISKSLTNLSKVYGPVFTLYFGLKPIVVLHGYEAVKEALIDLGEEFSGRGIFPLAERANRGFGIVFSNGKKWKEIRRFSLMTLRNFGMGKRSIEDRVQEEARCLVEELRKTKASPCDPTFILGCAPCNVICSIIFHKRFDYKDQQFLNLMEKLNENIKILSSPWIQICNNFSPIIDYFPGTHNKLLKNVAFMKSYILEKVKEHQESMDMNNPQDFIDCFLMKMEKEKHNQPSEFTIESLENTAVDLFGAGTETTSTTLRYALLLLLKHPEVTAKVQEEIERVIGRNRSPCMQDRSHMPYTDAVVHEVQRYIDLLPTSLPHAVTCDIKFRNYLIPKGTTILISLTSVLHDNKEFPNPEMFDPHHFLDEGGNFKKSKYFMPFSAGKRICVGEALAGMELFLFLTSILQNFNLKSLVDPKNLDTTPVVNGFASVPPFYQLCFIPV

Molecule `CCn1c(-c2cnc(C)nc2)nc2c(N[C@H]3CCN(C(=O)C4CC4)C3)ncnc21` yielded a solubility in [1] of 14 mg/mL (≈ 35.7 mM). Moreover, the Vd in [2] came to 1 L/kg. In data set [3], the concentration is 14 nM. Moreover, the bioavailability is 95% in [4] and 77% in data set [7]. Moreover, the fCmin in [5] is 8 nM. Further, the efflux ratio in the data set with BCRP amounted to 5. In addition, the IC50 in [6] was 0.0016 µM; on Cytochrome P450 2C9, > 50 µM; against Cytochrome P450 2B6, > 50 µM.

One may read the solubility as how much of the substance goes into solution per volume. Broadly, the Vd is the apparent volume that relates the amount in the body to the concentration in plasma or blood. Higher therefore signals extensive tissue distribution. The term bioavailability denotes dose-corrected exposure relative to a reference, in per cent. Read a high bioavailability as good availability. The term efflux ratio denotes the permeability from basolateral to apical divided by that in the opposite direction, in the common usage. A word on the IC50: it is the point on the concentration scale where inhibition reaches its midpoint.
